Measurements published in patent publication US9434711B2 (Janssen Pharmaceutica, NV, priority 2007, dated 2016).

Biological target: canine TRPM8 (Canis lupus familiaris, UniProt Q1A7N1)
Experiment: In Vitro Canine TRPM8 Functional Assay (Ca2+ fluorescence, icilin activation)
Format: cell-based
Conditions: for IC50: HEK293 cells stably expressing canine TRPM8, icilin activation, eight-point dose-response, read-out: IC50; for inhibition at 0.2 µM: read-out: % Inh @ 0.2
Outline: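 HEK293 cells stably expressing canine TRPM8 were loaded with Calcium 3 dye (35 min at 37 °C, then 25 min at room temperature). Compound was added and Ca2+ fluorescence was read for 5 min before icilin at a concentration giving about 80% maximal response. EC50/IC50 came from eight-point dose-response curves, quadruplicate wells.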

[1] = compound at 0.2 μM, canine TRPM8, icilin activation

Sequence of canine TRPM8 (Q1A7N1 1-1104): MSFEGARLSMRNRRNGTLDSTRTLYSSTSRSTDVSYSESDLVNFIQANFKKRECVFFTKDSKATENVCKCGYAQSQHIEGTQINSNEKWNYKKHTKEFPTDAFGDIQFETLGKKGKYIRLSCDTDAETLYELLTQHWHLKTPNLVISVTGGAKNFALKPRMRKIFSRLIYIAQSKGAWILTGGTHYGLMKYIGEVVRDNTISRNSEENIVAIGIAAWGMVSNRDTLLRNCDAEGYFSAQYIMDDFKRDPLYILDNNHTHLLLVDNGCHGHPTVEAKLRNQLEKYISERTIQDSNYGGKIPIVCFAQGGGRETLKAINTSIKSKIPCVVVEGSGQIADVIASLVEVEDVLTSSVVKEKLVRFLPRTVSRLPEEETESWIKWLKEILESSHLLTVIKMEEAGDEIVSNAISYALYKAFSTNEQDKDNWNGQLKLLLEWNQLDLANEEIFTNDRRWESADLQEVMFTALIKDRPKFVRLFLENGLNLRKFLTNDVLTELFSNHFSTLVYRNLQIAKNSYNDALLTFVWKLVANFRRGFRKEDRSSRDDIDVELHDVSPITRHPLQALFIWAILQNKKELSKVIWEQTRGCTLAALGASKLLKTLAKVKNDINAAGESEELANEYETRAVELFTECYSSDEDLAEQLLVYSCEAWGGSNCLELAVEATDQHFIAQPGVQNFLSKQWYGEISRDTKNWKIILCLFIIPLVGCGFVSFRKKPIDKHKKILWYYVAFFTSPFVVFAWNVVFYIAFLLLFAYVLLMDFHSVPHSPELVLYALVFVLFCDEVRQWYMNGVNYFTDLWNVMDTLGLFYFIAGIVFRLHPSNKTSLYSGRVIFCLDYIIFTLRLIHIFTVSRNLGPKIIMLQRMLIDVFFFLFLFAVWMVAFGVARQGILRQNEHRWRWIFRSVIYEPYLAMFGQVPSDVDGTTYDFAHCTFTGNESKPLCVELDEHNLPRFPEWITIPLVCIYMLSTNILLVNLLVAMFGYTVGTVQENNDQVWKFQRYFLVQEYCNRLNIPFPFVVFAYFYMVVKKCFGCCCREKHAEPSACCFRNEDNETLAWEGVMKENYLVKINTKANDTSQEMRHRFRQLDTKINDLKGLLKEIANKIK

Row | Compound | IC50 [nM] | inhibition at 0.2 µM [1] [%] | % Inh @ 0.2 (μM) [1] [%]
1 | Cc1c(N(CCC2CC2)S(=O)(=O)c2ccc(-c3nnn[nH]3)cc2)sc2ccccc12 [Compound 570, N-(3-Methyl-benzo[b]thiophen-2-yl)-N-(cyclopropyl-ethyl)-4-(1H-tetrazol-5-yl)-benzenesulfonamide] | 6.6 | 101 | –
2 | Cc1c(N(CCC(F)(F)F)S(=O)(=O)c2ccc(-c3nnn[nH]3)cc2)sc2ccccc12 [Compound 572, N-(3-Methyl-benzo[b]thiophen-2-yl)-N-(3,3,3-trifluoro-propyl)-4-(1H-tetrazol-5-yl)-benzenesulfonamide] | 16.6 | 101 | –
3 | O=S(=O)(c1cccc(-c2nnn[nH]2)c1)N(Cc1ccc(F)c(C(F)(F)F)c1)c1sc2ccccc2c1Br [Compound 576, N-(3-Bromo-benzo[b]thiophen-2-yl)-N-(4-fluoro-3-trifluoromethyl-benzyl)-3-(1H-tetrazol-5-yl)-benzenesulfonamide] | 19.1 | 100 | –
4 | O=S1(=O)C(N(CCC2CC2)S(=O)(=O)c2ccccc2)=C(Br)c2ccccc21 [Compound 577, N-(3-Bromo-1,1-dioxo-1H-benzo[b]thiophen-2-yl)-N-(2-cyclopropylethyl)-benzenesulfonamide] | 7.8 | 101 | –
5 | O=S(=O)(c1cccc(-c2nnn[nH]2)c1)N(Cc1ccc(F)c(C(F)(F)F)c1)c1sc2ccccc2c1Cl [Compound 578, N-(3-Chloro-benzo[b]thiophen-2-yl)-N-(4-fluoro-3-trifluoromethyl-benzyl)-3-(1H-tetrazol-5-yl)-benzenesulfonamide] | 26.7 | 91 | –
6 | O=S1NC(c2ccc(S(=O)(=O)N(CCCCC(F)(F)F)c3sc4ccccc4c3Br)cc2)=NO1 (stereo not drawn) [Compound 581, N-(3-Bromo-benzo[b]thiophen-2-yl)-N-(5,5,5-trifluoro-pentyl)-4-(3H-[1,2,3,5]oxathiadiazole-2-oxide)-benzenesulfonamide] | 25.1 | – | 100

The next lines start with results.

Row | IC50 [nM] | inhibition at 0.2 µM [1] [%] | Compound | % Inh @ 0.2 (μM) [1] [%]
7 | 35 | 88 | O=S(=O)(c1ccc(-c2nnn[nH]2)cc1)N(CCC1CC1)c1cc2ccccc2s1 [Compound 569, N-(Benzo[b]thiophen-2-yl)-N-(2-cyclopropyl-ethyl)-4-(1H-tetrazol-5-yl)-benzenesulfonamide] | –
8 | – | 14 | O=S(=O)(c1ccc(-c2nnn[nH]2)cc1)N(CCC(F)(F)F)c1cc2ccccc2s1 [Compound 571, N-(Benzo[b]thiophen-2-yl)-N-(3,3,3-trifluoro-propyl)-4-(1H-tetrazol-5-yl)-benzenesulfonamide] | –
9 | – | 28 | N#Cc1cccc(S(=O)(=O)N(CCC(F)(F)F)c2cc3ccccc3s2)c1 [Compound 573, N-(Benzo[b]thiophen-2-yl)-N-(3,3,3-trifluoro-propyl)-3-cyano-benzenesulfonamide] | –
10 | – | 16 | N#Cc1cccc(S(=O)(=O)N(CCCC(F)(F)F)c2cc3ccccc3s2)c1 [Compound 574, N-(Benzo[b]thiophen-2-yl)-N-(4,4,4-trifluoro-butyl)-3-cyano-benzenesulfonamide] | –
11 | – | 15 | N#Cc1cccc(S(=O)(=O)N(CCC2CC2)c2cc3ccccc3s2)c1 [Compound 575, N-(Benzo[b]thiophen-2-yl)-N-(2-cyclopropyl-ethyl)-3-cyano-benzenesulfonamide] | –
12 | – | 102 | O=S(=O)(c1ccc(-c2nnn[nH]2)cc1)N(CCCCC(F)(F)F)c1sc2ccccc2c1Br [Compound 579, N-(3-Bromo-benzo[b]thiophen-2-yl)-N-(5,5,5-trifluoro-pentyl)-4-(1H-tetrazol-5-yl)-benzenesulfonamide] | –
13 | 22.1 | 101 | O=S(=O)(c1ccc(-c2nnn[nH]2)cc1)N(CCCCC(F)(F)F)c1sc2ccccc2c1Cl [Compound 580, N-(3-Chloro-benzo[b]thiophen-2-yl)-N-(5,5,5-trifluoro-pentyl)-4-(1H-tetrazol-5-yl)-benzenesulfonamide] | –
